Measured values from US11192867B2, “Microbiocidal oxadiazole derivatives” (SYNGENTA PARTICIPATIONS AG, priority 2016, dated 2021).

Key:
[1] = system: Puccinia recondita f. sp. Tritici; assay: Fungicidal activity against Puccinia recondita f. sp. Tritici / wheat / leaf disc preventative (brown rust); format: in vivo; conditions: foliar, 200 ppm in the applied formulation, wheat leaf segments cv. Kanzler, inoculated 1 day after application, vs untreated control, read-out: disease control
In short: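 Preventative leaf-segment test: compound at 200 ppm applied by spray to Kanzler wheat, with spore inoculation following after one day. Disease control relative to untreated check read 7 to 9 days post-application, incubation at 19° C., 75% relative humidity, 12 h light/12 h dark.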

[2] = system: Puccinia recondita f. sp. Tritici; assay: Fungicidal activity against Puccinia recondita f. sp. Tritici / wheat / leaf disc curative (brown rust); format: in vivo; conditions: foliar, 24 h, 200 ppm in the applied formulation, wheat leaf segments cv. Kanzler, applied 1 day after inoculation, vs untreated control, read-out: disease control
Procedure: Leaf disks or leaf segments of various plant species are cut from plants grown in a greenhouse. The cut leaf disks or segments are placed in multiwell plates (24-well format) onto water agar. The leaf disks are sprayed with a test solution before (preventative) or after (curative) inoculation. Compounds to be tested are prepared as DMSO solutions (max. 10 mg/ml) which are diluted to the appropriate concentration with 0.025% Tween20 just before spraying. The inoculated leaf disks or segments are incubated under defined conditions (temperature, relative humidity, light, etc.) according to the respective test system. A single evaluation of disease level is carried out 3 to 14 days after inoculation, depending on the pathosystem. Percent disease control relative to the untreated check leaf disks or segments is then calculated.
Wheat leaf segments cv. Kanzler are placed on agar in multiwell plates (24-well format). The leaf segments are then inoculated with a spore suspension of the fungus. Plates were stored in darkness at 19° C. and 75% relative humidity. The formulated test compound diluted in water was applied 1 day after inoculation. The leaf segments were incubated at 19° C. and 75% relative humidity under a light regime of 12 hours light/12 hours darkness in a climate cabinet and the activity of a compound was assessed as percent disease control compared to untreated when an appropriate level of disease damage appears in untreated check leaf segments (6 to 8 days after application).
The following compounds at 200 ppm in the applied formulation give at least 80% disease control in this test when compared to untreated control leaf disks under the same conditions, which show extensive disease development.

[3] = system: Glomerella lagenarium (Colletotrichum lagenarium); assay: Fungicidal activity against Glomerella lagenarium (Colletotrichum lagenarium) liquid culture / cucumber / preventative (anthracnose); format: cell-based; conditions: Colletotrichum orbiculare, 72 h; 20 ppm in the applied formulation; liquid culture (PDB), growth inhibition measured photometrically 3 to 4 days after application; vs untreated control; read-out: disease control
In short: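 In liquid culture, cryo-stored conidia in potato dextrose broth were exposed to compound delivered from DMSO solution. Growth inhibition was measured photometrically after 3 to 4 days at 24° C.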

Phakopsora pachyrhizi = assay: Fungicidal activity against Phakopsora pachyrhizi / soybean / leaf disc preventative (Asian soybean rust); format: in vivo; conditions: foliar, 200 ppm in the applied formulation, soybean leaf disks, vs untreated control, read-out: disease control
In short: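 Soybean leaf discs on water agar sprayed with compound diluted in water, then inoculated with spores on the lower surface one day later. Kept 24-36 h dark, 20 °C, 75% rh, then 12 h light/12 h dark. Percent disease control versus untreated scored 12-14 days after application.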

CO/N=C/CNC(=O)c1ccc(-c2noc(C(F)(F)F)n2)cc1F [Compound 1.4, 2-fluoro-N-[(2E)-2-methoxyimino-ethyl]-4-[5-(trifluoromethyl)-1,2,4-oxadiazol-3-yl]benzamide]
≥ 80%: pest or weed control at 200 ppm [1] | pest or weed control at 200 ppm [2] | inhibition of growth at 20 ppm [3] | pest or weed control at 200 ppm (Phakopsora pachyrhizi)

CO/N=C\NC(=O)c1ccc(-c2noc(C(F)(F)F)n2)cc1 [Compound 1.5, N-[(Z)-methoxyiminomethyl]-4-[5-(trifluoromethyl)-1,2,4-oxadiazol-3-yl]benzamide]
≥ 80%: pest or weed control at 200 ppm [1] | pest or weed control at 200 ppm [2] | inhibition of growth at 20 ppm [3] | pest or weed control at 200 ppm (Phakopsora pachyrhizi)

CC(C=NOCCO)NC(=O)c1ccc(-c2noc(C(F)(F)F)n2)cc1 (stereo not drawn) [Compound 1.15, N-[2-(2-hydroxyethoxy-imino)-1-methyl-ethyl]-4-[5-(trifluoromethyl)-1,2,4-oxadiazol-3-yl]benzamide]
≥ 80%: pest or weed control at 200 ppm [1] | pest or weed control at 200 ppm [2] | inhibition of growth at 20 ppm [3] | pest or weed control at 200 ppm (Phakopsora pachyrhizi)

CC(C=NOCCN)NC(=O)c1ccc(-c2noc(C(F)(F)F)n2)cc1 (stereo not drawn) [Compound 1.21, N-[2-(2-aminoethoxy-imino)-1-methyl-ethyl]-4-[5-(trifluoromethyl)-1,2,4-oxadiazol-3-yl]benzamide]
≥ 80%: pest or weed control at 200 ppm [1] | pest or weed control at 200 ppm [2] | pest or weed control at 200 ppm (Phakopsora pachyrhizi)

CC(C=NOCC=CCl)NC(=O)c1ccc(-c2noc(C(F)(F)F)n2)cc1 (stereo not drawn) [Compound 1.33, N-[2-(3-chloroallyloxy-imino)-1-methyl-ethyl]-4-[5-(trifluoromethyl)-1,2,4-oxadiazol-3-yl]benzamide]
≥ 80%: pest or weed control at 200 ppm [1] | pest or weed control at 200 ppm [2] | inhibition of growth at 20 ppm [3] | pest or weed control at 200 ppm (Phakopsora pachyrhizi)

CC(C=NOC/C=C\Cl)NC(=O)c1ccc(-c2noc(C(F)(F)F)n2)cc1 (stereo not drawn) [Compound 1.36, N-[2-[(Z)-3-chloroallyloxy]imino-1-methyl-ethyl]-4-[5-(trifluoromethyl)-1,2,4-oxadiazol-3-yl]benzamide]
≥ 80%: pest or weed control at 200 ppm [1] | pest or weed control at 200 ppm [2] | inhibition of growth at 20 ppm [3] | pest or weed control at 200 ppm (Phakopsora pachyrhizi)

CCON=CC(C)NC(=O)c1ccc(-c2noc(C(F)(F)F)n2)cc1 (stereo not drawn) [Compound 1.43, N-(2-ethoxyimino-1-methyl-ethyl)-4-[5-(trifluoromethyl)-1,2,4-oxadiazol-3-yl]benzamide]
≥ 80%: pest or weed control at 200 ppm [1] | pest or weed control at 200 ppm [2] | inhibition of growth at 20 ppm [3] | pest or weed control at 200 ppm (Phakopsora pachyrhizi)

C=CCON=CC(C)NC(=O)c1ccc(-c2noc(C(F)(F)F)n2)cc1 (stereo not drawn) [Compound 1.46, N-(2-allyloxyimino-1-methyl-ethyl)-4-[5-(trifluoromethyl)-1,2,4-oxadiazol-3-yl]benzamide]
≥ 80%: pest or weed control at 200 ppm [1] | pest or weed control at 200 ppm [2] | inhibition of growth at 20 ppm [3] | pest or weed control at 200 ppm (Phakopsora pachyrhizi)

CC(C=NOC1COC1)NC(=O)c1ccc(-c2noc(C(F)(F)F)n2)cc1 (stereo not drawn) [Compound 1.58, N-[1-methyl-2-(oxetan-3-yloxyimino)ethyl]-4-[5-(trifluoromethyl)-1,2,4-oxadiazol-3-yl]benzamide]
≥ 80%: pest or weed control at 200 ppm [1] | pest or weed control at 200 ppm [2] | inhibition of growth at 20 ppm [3] | pest or weed control at 200 ppm (Phakopsora pachyrhizi)

O=C(NCC=NOCCO)c1ccc(-c2noc(C(F)(F)F)n2)cc1 [Compound 1.60, N-[2-(2-hydroxyethoxy-imino)ethyl]-4-[5-(trifluoromethyl)-1,2,4-oxadiazol-3-yl]benzamide]
≥ 80%: pest or weed control at 200 ppm [1] | pest or weed control at 200 ppm [2] | inhibition of growth at 20 ppm [3] | pest or weed control at 200 ppm (Phakopsora pachyrhizi)

NCCON=CCNC(=O)c1ccc(-c2noc(C(F)(F)F)n2)cc1 [Compound 1.66, N-[2-(2-aminoethoxy-imino)ethyl]-4-[5-(trifluoromethyl)-1,2,4-oxadiazol-3-yl]benzamide]
≥ 80%: pest or weed control at 200 ppm [1] | pest or weed control at 200 ppm [2] | inhibition of growth at 20 ppm [3] | pest or weed control at 200 ppm (Phakopsora pachyrhizi)

O=C(NCC=NOC1CCCCO1)c1ccc(-c2noc(C(F)(F)F)n2)cc1 (stereo not drawn) [Compound 1.70, N-(2-tetrahydropyran-2-yloxyiminoethyl)-4-[5-(trifluoromethyl)-1,2,4-oxadiazol-3-yl]benzamide]
≥ 80%: pest or weed control at 200 ppm [1] | pest or weed control at 200 ppm [2] | inhibition of growth at 20 ppm [3] | pest or weed control at 200 ppm (Phakopsora pachyrhizi)

CCCON=CCNC(=O)c1ccc(-c2noc(C(F)(F)F)n2)cc1 [Compound 1.72, N-(2-propoxyiminoethyl)-4-[5-(trifluoromethyl)-1,2,4-oxadiazol-3-yl]benzamide]
≥ 80%: pest or weed control at 200 ppm [1] | pest or weed control at 200 ppm [2] | inhibition of growth at 20 ppm [3] | pest or weed control at 200 ppm (Phakopsora pachyrhizi)

C[C@@H](ON=CCNC(=O)c1ccc(-c2noc(C(F)(F)F)n2)cc1)C(=O)O [Compound 1.74, (2R)-2-[2-[[4-[5-(trifluoromethyl)-1,2,4-oxadiazol-3-yl]benzoyl]amino]ethylideneamino] oxypropanoic acid]
≥ 80%: pest or weed control at 200 ppm [1] | pest or weed control at 200 ppm [2] | inhibition of growth at 20 ppm [3] | pest or weed control at 200 ppm (Phakopsora pachyrhizi)

O=C(NCC=NOCC=CCl)c1ccc(-c2noc(C(F)(F)F)n2)cc1 [Compound 1.78, N-[2-(3-chloroallyloxyimino)ethyl]-4-[5-(trifluoromethyl)-1,2,4-oxadiazol-3-yl]benzamide]
≥ 80%: pest or weed control at 200 ppm [1] | pest or weed control at 200 ppm [2] | inhibition of growth at 20 ppm [3] | pest or weed control at 200 ppm (Phakopsora pachyrhizi)

O=C(NCC=NOC/C=C\Cl)c1ccc(-c2noc(C(F)(F)F)n2)cc1 [Compound 1.81, N-[2-[(Z)-3-chloroallyloxy]iminoethyl]-4-[5-(trifluoromethyl)-1,2,4-oxadiazol-3-yl]benzamide]
≥ 80%: pest or weed control at 200 ppm [1] | pest or weed control at 200 ppm [2] | inhibition of growth at 20 ppm [3] | pest or weed control at 200 ppm (Phakopsora pachyrhizi)

CC(CNC(=O)c1ccc(-c2noc(C(F)(F)F)n2)cc1)=NO[C@H](C)C(=O)O [Compound 1.117, (2R)-2-[[1-methyl-2-[[4-[5-(trifluoromethyl)-1,2,4-oxadiazol-3-yl]benzoyl]amino]ethylidene]amino] oxypropanoic acid]
≥ 80%: pest or weed control at 200 ppm [1] | pest or weed control at 200 ppm [2] | inhibition of growth at 20 ppm [3]

CC(CNC(=O)c1ccc(-c2noc(C(F)(F)F)n2)cc1)=NO[C@@H](C)C(=O)O [Compound 1.120, (2S)-2-[[1-methyl-2-[[4-[5-(trifluoromethyl)-1,2,4-oxadiazol-3-yl]benzoyl]amino]ethylidene]amino] oxypropanoic acid]
≥ 80%: pest or weed control at 200 ppm [1] | pest or weed control at 200 ppm [2] | inhibition of growth at 20 ppm [3]

CC(CNC(=O)c1ccc(-c2noc(C(F)(F)F)n2)cc1)=NOC(C)C(=O)O (stereo not drawn) [Compound 1.125, 2-[[1-methyl-2-[[4-[5-(trifluoromethyl)-1,2,4-oxadiazol-3-yl]benzoyl]amino]ethylidene]amino] oxypropanoic acid]
≥ 80%: pest or weed control at 200 ppm [1] | pest or weed control at 200 ppm [2] | inhibition of growth at 20 ppm [3]
